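Results reflect a 48-hour exposure of cells in 96-well plates to compound at five concentrations. The concentration for 50% growth inhibition is given as GI50.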 Active and inactive are the calls of the source. Rule as the data show it: active = GI50 up to about 1.1 µM and inactive = higher.
Assays:
Test in all cases: DTP human tumour cell line panel, 48 h
[1] = system: IGROV-1
[2] = system: HCT-15
[3] = system: HCC 2998
[4] = system: SNB-19
[5] = system: HL-60
[6] = system: NCI-H522
[7] = system: UO-31
[8] = system: EKVX
[9] = system: KM12
[10] = system: SK-MEL-2
[11] = system: UACC-62
[12] = system: HOP-92
[13] = system: SNB-75
[14] = system: OVCAR-4
[15] = system: OVCAR-8
[16] = system: U-251
[17] = system: SF-268
[18] = system: RPMI-8226
[19] = system: SN12C
[20] = system: OVCAR-3

Compound | GI50 [1] | GI50 [2] [µM] | GI50 [3] | GI50 [4] | GI50 [5] | GI50 [6] | GI50 [7] | GI50 [8] | GI50 [9] | GI50 [10] | GI50 [11] | GI50 [12] | GI50 [13] | GI50 [14] | GI50 [15] | GI50 [16] | GI50 [17] | GI50 [18] | GI50 [19] | GI50 [20]
O=C(/C=C/c1ccccc1)CC1OC(=O)c2ccccc21 (stereo not drawn) | 80.7 µM (inactive) | > 100 | > 100 µM (inactive) | 42.1 µM (inactive) | 28.1 µM (inactive) | 31.3 µM (inactive) | > 100 µM (inactive) | > 100 µM (inactive) | 40.5 µM (inactive) | 46.3 µM (inactive) | 26.1 µM (inactive) | 48.8 µM (inactive) | 45.5 µM (inactive) | > 100 µM (inactive) | > 100 µM (inactive) | > 100 µM (inactive) | > 100 µM (inactive) | 24.2 µM (inactive) |  | 
CC1=C(C(=O)Nc2cccc(Cl)c2)C(c2ccccc2O)C(C(=O)Nc2cccc(Cl)c2)=C(C)N1 | 23.9 µM (inactive) |  | 18.9 µM (inactive) | 26.1 µM (inactive) | 21 µM (inactive) | 17.1 µM (inactive) | 17.2 µM (inactive) | 22.4 µM (inactive) | 16.8 µM (inactive) | 16.1 µM (inactive) |  | 20.1 µM (inactive) | 14.9 µM (inactive) | 18.3 µM (inactive) | 25.2 µM (inactive) | 19.9 µM (inactive) | 17.7 µM (inactive) | 20.7 µM (inactive) | 21.8 µM (inactive) | 20.6 µM (inactive)
Nc1nc2cc(COc3ccc(C(=O)O)cc3)ccc2nc1-c1ccccc1 | > 10 µM (inactive) | > 10 | > 10 µM (inactive) | > 10 µM (inactive) | > 10 µM (inactive) | > 10 µM (inactive) | > 10 µM (inactive) | > 10 µM (inactive) | > 10 µM (inactive) | > 10 µM (inactive) | > 10 µM (inactive) | > 10 µM (inactive) | > 10 µM (inactive) | > 10 µM (inactive) |  | > 10 µM (inactive) | > 10 µM (inactive) | > 10 µM (inactive) | > 10 µM (inactive) | > 10 µM (inactive)
CC(=O)NNc1nc(C)c(C(=O)NNC(=O)C(=O)Nc2ccc([N+](=O)[O-])cc2[N+](=O)[O-])s1 | > 100 µM (inactive) | > 100 | > 100 µM (inactive) | > 100 µM (inactive) | 64.9 µM (inactive) | 30.6 µM (inactive) | > 100 µM (inactive) | 35.6 µM (inactive) | > 100 µM (inactive) | > 100 µM (inactive) | > 100 µM (inactive) | 79.3 µM (inactive) | 47.5 µM (inactive) | > 100 µM (inactive) | > 100 µM (inactive) | 68.7 µM (inactive) | > 100 µM (inactive) | 99.8 µM (inactive) | > 100 µM (inactive) | 
COc1ccc(NC(=O)C(=O)C(C(=O)c2ccccc2)C2OC(=O)c3ccccc32)c([N+](=O)[O-])c1 (stereo not drawn) | > 100 µM (inactive) | > 100 | > 100 µM (inactive) | > 100 µM (inactive) | > 100 µM (inactive) | > 100 µM (inactive) | > 100 µM (inactive) | > 100 µM (inactive) | > 100 µM (inactive) | > 100 µM (inactive) | > 100 µM (inactive) | > 100 µM (inactive) | > 100 µM (inactive) | > 100 µM (inactive) | > 100 µM (inactive) | > 100 µM (inactive) | > 100 µM (inactive) | > 100 µM (inactive) | > 100 µM (inactive) | 
O=c1cccccc1NCCCCCCCCCNc1cccccc1=O | 19 µM (inactive) | 12.2 | 13.3 µM (inactive) | 11.5 µM (inactive) | 4.06 µM (inactive) | 13.9 µM (inactive) | 12 µM (inactive) | 4.56 µM (inactive) | 16.1 µM (inactive) | 19 µM (inactive) | 12.5 µM (inactive) | 18.7 µM (inactive) | 17.9 µM (inactive) | 1.78 µM (inactive) | 13.6 µM (inactive) | 10.6 µM (inactive) | 14.1 µM (inactive) | 4.4 µM (inactive) | 21 µM (inactive) | 9.06 µM (inactive)

— ChEMBL document CHEMBL1201862, “PubChem BioAssay data set” (2004)
